Test results taken from ChEMBL document CHEMBL1127866, “Cyclopentanespiro-3H-dihydro-pyrimidinones as Angiotensin II AT1 receptor antagonists” (Bioorg Med Chem Lett, 1994).
pIC50: −log10 of the molar value.

What was measured:
[1] = molecular target: T1, Type-1 angiotensin II receptor B (Rattus norvegicus, UniProt P29089); assay: In vitro inhibition of specific binding of [125I]AII to Angiotensin II receptor, type 1 from rat liver membrane
T1 sequence (P29089 whole entry): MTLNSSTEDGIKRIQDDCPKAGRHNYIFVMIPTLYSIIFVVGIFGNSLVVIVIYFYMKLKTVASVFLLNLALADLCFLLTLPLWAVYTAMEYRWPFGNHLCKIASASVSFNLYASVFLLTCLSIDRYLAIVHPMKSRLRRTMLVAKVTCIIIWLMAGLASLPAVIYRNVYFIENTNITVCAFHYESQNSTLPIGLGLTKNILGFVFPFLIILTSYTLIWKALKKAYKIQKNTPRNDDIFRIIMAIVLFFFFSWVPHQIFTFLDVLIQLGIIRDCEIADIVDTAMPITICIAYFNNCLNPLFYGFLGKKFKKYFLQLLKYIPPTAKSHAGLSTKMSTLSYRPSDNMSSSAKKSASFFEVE

Monkey [2] = assay: Tested for induced pressor response to AII (100 ng/kg, iv) in conscious normotensive monkey at a compound dose of 3 mg/kg po for 1 hr; type: functional, Cercopithecidae
Monkey [3] = assay: Tested for induced pressor response to AII (100 ng/kg, iv) in conscious normotensive monkey at a compound dose of 3 mg/kg po for 2 hr; type: functional, Cercopithecidae
Monkey [4] = assay: Tested for induced pressor response to AII (100 ng/kg, iv) in conscious normotensive monkey at a compound dose of 3 mg/kg po for 3 hr; type: functional, Cercopithecidae
Monkey [5] = assay: Tested for induced pressor response to AII (100 ng/kg, iv) in conscious normotensive monkey at a compound dose of 3 mg/kg po for 4 hr; type: functional, Cercopithecidae
Monkey [6] = assay: Tested for induced pressor response to AII (100 ng/kg, iv) in conscious normotensive monkey at a compound dose of 3 mg/kg po for 0 hr; type: functional, Cercopithecidae
Rattus norvegicus [7] = assay: Tested for induced pressor response to AII (40 ng/kg, iv) in conscious normotensive rats at a compound dose of 3 mg/kg po for 0 min; type: functional
Rattus norvegicus [8] = assay: Tested for induced pressor response to AII (40 ng/kg, iv) in conscious normotensive rats at a compound dose of 3 mg/kg po for 120 min; type: functional
Rattus norvegicus [9] = assay: Tested for induced pressor response to AII (40 ng/kg, iv) in conscious normotensive rats at a compound dose of 3 mg/kg po for 15 min; type: functional
Rattus norvegicus [10] = assay: Tested for induced pressor response to AII (40 ng/kg, iv) in conscious normotensive rats at a compound dose of 3 mg/kg po for 180 min; type: functional
Rattus norvegicus [11] = assay: Tested for induced pressor response to AII (40 ng/kg, iv) in conscious normotensive rats at a compound dose of 3 mg/kg po for 30 min; type: functional
Rattus norvegicus [12] = assay: Tested for induced pressor response to AII (40 ng/kg, iv) in conscious normotensive rats at a compound dose of 3 mg/kg po for 60 min; type: functional
Rattus norvegicus [13] = assay: Tested for induced pressor response to AII (40 ng/kg, iv) in conscious normotensive rats at a compound dose of 3 mg/kg po for 90 min; type: functional
Monkey [14] = assay: Tested for induced pressor response to AII (100 ng/kg, iv) in conscious normotensive monkey at a compound dose of 3 mg/kg po for 5 hr; type: functional, Cercopithecidae

pIC50 [1]	SMILES	Delta MAP (Monkey [2]) [mmHg]	Delta MAP (Monkey [3]) [mmHg]	Delta MAP (Monkey [4]) [mmHg]	Delta MAP (Monkey [5]) [mmHg]	Delta MAP (Monkey [6]) [mmHg]	Delta MAP (Rattus norvegicus [7]) [mmHg]	Delta MAP (Rattus norvegicus [8]) [mmHg]	Delta MAP (Rattus norvegicus [9]) [mmHg]	Delta MAP (Rattus norvegicus [10]) [mmHg]	Delta MAP (Rattus norvegicus [11]) [mmHg]	Delta MAP (Rattus norvegicus [12]) [mmHg]	Delta MAP (Rattus norvegicus [13]) [mmHg]	Delta MAP (Monkey [14]) [mmHg]
5.89	CCCCC1=NC(=O)C2(CCCC2)CN1Cc1ccc(-c2ccccc2C(=O)O)cc1	–	–	–	–	–	–	–	–	–	–	–	–	–
7.15	CCCCC1=NCC2(CCCC2)C(=O)N1Cc1ccc(-c2ccccc2C(=O)O)cc1	–	–	–	–	–	–	–	–	–	–	–	–	–
7.28	CCCCC1=NC2(CCCC2)CC(=O)N1Cc1ccc(-c2ccccc2C(=O)O)cc1	–	–	–	–	–	–	–	–	–	–	–	–	–

The next lines start with the molecule.

SMILES	pIC50 [1]	Delta MAP (Monkey [2]) [mmHg]	Delta MAP (Monkey [3]) [mmHg]	Delta MAP (Monkey [4]) [mmHg]	Delta MAP (Monkey [5]) [mmHg]	Delta MAP (Monkey [6]) [mmHg]	Delta MAP (Rattus norvegicus [7]) [mmHg]	Delta MAP (Rattus norvegicus [8]) [mmHg]	Delta MAP (Rattus norvegicus [9]) [mmHg]	Delta MAP (Rattus norvegicus [10]) [mmHg]	Delta MAP (Rattus norvegicus [11]) [mmHg]	Delta MAP (Rattus norvegicus [12]) [mmHg]	Delta MAP (Rattus norvegicus [13]) [mmHg]	Delta MAP (Monkey [14]) [mmHg]
CCCCC1=NC2(CCCC2)C(C)(C)C(=O)N1Cc1ccc(-c2ccccc2-c2nnn[nH]2)cc1	8.66	–	–	–	–	–	–	–	–	–	–	–	–	–
CCCCC1=NC2(CCCC2)CC(=O)N1Cc1ccc(-c2ccccc2-c2nn[nH]n2)cc1	9.00	~27	~29	~29	~32	~33	~35	~15	~10	~17	~15	~14	~18	–
CCCCC1=NC2(CCCC2)C(=O)N1Cc1ccc(-c2ccccc2-c2nnn[nH]2)cc1 [IRBESARTAN]	–	~9	~15	~18	~23	~33	~45	~18	~22	~17	~22	~20	~17	~25
